Where only a bound is given, the exact number is not on record here.

Holding throughout (assay type): biochemical
One test deals with FGFR2 (Homo sapiens, UniProt P21802). The experiment in a line: Kinase selectivity assay (CEREP, HTRF). The note with it: read-out: % Inhibition at 10 μM Concentration. On the procedure: (§1) The inhibitory activity of selected compounds was evaluated against a panel of 45 different kinase enzymes by CEREP, France. The assays were performed using standard HTRF assay methods as documented by CEREP against the human orthologues of Abl kinase, Akt1/PKBa, AMPKa, BMX kinase (Etk), Brk, CaMK2a, CaMK4, CDC2/CDK1 (cycB), CHK1, CHK2, c-Met kinase, CSK, EphB4 kinase, ERK1, ERK2 (P42mapk), FGFR2 kinase, FGFR4 kinase, FLT-1 kinase (VEGFR1), FLT-3 kinase, Fyn kinase, IGF1R kinase, IRK (InsR), JNK 2, KDR kinase (VEGFR2), Lck kinase, Lyn kinase, MAPKAPK2, MEK1/MAP2K1, p38a kinase, p38d kinase, p38g kinase, PDGFRb kinase, PDK1, PKA, PKCa, PKCb1, PKCb2, PKCg, Ret kinase, ROCK2, RSK2, Src kinase, Syk, and TRKA. The % Inhibition was determined by the formula; % Inhibition=100×(1−(experimental value−background value)/(high activity control−background value)).
FGFR2, sequence (P21802 22-821): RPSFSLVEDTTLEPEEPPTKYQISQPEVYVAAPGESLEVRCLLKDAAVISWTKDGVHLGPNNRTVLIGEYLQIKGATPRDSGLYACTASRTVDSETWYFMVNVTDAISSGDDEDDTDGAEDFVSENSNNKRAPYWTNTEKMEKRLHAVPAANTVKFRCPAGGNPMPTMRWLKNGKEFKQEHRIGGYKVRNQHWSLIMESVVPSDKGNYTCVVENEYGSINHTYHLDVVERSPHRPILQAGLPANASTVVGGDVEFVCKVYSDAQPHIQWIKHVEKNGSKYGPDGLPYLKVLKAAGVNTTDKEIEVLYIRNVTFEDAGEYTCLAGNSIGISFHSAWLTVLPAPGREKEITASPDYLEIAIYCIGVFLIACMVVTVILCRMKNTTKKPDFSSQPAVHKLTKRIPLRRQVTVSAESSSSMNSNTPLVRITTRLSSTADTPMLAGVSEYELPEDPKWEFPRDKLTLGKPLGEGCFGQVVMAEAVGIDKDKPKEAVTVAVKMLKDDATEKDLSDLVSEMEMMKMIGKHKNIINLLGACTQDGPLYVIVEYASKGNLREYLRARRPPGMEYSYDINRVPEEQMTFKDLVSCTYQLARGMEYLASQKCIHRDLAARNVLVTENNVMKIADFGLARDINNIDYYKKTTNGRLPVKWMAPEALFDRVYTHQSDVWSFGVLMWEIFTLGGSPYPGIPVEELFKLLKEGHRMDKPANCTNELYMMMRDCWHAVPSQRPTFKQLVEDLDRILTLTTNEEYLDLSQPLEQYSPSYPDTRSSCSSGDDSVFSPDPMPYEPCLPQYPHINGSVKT
In general terms: TR-FRET usually uses a lanthanide donor and a delayed reading to cut background.

For the next test, the target named is KDR (VEGFR2) (Homo sapiens, UniProt P35968). The experiment in a line: Kinase selectivity assay (CEREP, HTRF). The note with it: read-out: % Inhibition at 10 μM Concentration. On the procedure: as §1
KDR (VEGFR2), sequence (P35968 20-1356): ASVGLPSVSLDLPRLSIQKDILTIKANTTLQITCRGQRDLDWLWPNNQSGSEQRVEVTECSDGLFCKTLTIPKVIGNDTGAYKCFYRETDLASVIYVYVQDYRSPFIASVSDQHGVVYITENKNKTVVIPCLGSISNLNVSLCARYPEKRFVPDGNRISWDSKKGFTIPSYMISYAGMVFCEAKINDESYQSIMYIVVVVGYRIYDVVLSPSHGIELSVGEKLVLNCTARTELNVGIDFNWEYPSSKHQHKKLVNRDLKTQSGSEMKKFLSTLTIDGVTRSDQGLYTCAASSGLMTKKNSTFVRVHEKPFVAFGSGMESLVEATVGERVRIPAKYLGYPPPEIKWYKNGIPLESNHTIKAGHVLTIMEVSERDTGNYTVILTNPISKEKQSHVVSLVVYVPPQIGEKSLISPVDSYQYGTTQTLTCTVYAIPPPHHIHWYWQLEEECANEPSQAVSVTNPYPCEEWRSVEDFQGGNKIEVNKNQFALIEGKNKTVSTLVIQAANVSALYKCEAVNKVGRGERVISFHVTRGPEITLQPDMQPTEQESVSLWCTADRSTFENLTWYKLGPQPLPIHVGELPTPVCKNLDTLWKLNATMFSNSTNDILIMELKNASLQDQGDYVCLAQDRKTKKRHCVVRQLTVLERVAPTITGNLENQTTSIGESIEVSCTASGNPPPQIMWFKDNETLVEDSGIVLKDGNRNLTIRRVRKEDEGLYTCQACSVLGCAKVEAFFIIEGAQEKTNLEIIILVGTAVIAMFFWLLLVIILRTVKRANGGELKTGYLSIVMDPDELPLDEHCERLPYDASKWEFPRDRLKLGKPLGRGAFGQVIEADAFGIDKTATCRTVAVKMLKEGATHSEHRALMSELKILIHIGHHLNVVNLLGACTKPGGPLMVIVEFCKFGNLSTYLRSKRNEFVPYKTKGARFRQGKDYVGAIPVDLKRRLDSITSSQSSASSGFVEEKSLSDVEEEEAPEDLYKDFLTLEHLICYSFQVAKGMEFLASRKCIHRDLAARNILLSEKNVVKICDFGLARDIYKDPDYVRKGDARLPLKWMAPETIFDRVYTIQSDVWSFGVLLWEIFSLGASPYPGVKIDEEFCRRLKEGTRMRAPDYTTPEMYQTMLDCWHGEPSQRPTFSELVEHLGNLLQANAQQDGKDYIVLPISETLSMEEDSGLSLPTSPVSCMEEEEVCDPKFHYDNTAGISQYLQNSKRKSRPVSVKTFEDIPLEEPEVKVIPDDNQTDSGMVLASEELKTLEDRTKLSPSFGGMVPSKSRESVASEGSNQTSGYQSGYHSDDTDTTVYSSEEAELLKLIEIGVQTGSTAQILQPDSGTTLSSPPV
Another test addresses T1, human PLK4 (Homo sapiens, UniProt O00444).
T1 construct: amino terminal GST fusion of residues 1-391 of human PLK4; made in house; host or cells: E. coli
T1 sequence (O00444 1-391): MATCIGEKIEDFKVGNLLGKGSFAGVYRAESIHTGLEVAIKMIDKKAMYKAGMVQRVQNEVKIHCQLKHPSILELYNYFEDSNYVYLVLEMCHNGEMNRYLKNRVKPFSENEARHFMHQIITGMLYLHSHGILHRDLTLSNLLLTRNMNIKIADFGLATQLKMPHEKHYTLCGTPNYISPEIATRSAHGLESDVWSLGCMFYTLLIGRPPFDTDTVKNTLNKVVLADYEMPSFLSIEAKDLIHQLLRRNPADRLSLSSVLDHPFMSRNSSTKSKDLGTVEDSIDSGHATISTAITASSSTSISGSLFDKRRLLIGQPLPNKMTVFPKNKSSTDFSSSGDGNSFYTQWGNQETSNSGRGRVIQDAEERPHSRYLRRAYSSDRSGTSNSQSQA
The experiment in a line: PLK4 inhibition assay (indirect ELISA). On the procedure: The protein was purified from clarified cell extracts after induction at 15° C. overnight using glutathione sepharose, gel permeation chromatography, and ion exchange (Resource Q). The resulting protein was dephosphorylated with lambda phosphatase (NEB cat# P0753), and resolved from the phosphatase using gluthione sepharose. The dephosphorylated GST-PLK4 was stored in aliquots at −80° C. until use.
PLK4 activity was measured using an indirect ELISA detection system. […] The colourimetric reaction was allowed to continue for 5 minutes, followed by addition of stop solution (0.5 N sulphuric acid), and quantified by detection at 450 nm with either a monochromatic or filter based plate reader (Molecular Devices M5 or Beckman DTX880, respectively).
Compounds were pre-incubated in the presence of enzyme for 15 minutes prior to addition of ATP and the activity remaining quantified using the above described activity assay. […] The IC50 value was determined using a non-linear 4 point logistic curve fit (XLfit4, IDBS) with the formula; (A+(B/(1+((x/C)^D)))), where A=background value, B=range, C=inflection point, D=curve fit parameter.
For orientation: ELISA stands for enzyme-linked immunosorbent assay.

Take `COc1ccc2c(c1)/C(=C\c1ccc3c(/C=C/c4ccc(N5CCN(C)CC5)nc4)n[nH]c3c1)C(=O)N2` [Compound 3]: the inhibition at 10 µM at FGFR2 is 4%; on KDR (VEGFR2), 32%. `COc1ccc2c(c1)[C@@]1(C[C@@H]1c1ccc3c(-c4ccc(N5CCN(C)CC5)nc4)n[nH]c3c1)C(=O)N2` (racemic) [Compound 2] returned an IC50 against human PLK4 of less than 5 µM.

Usually IC50 stands for the concentration needed to halve the response being measured. Low values mean greater potency, high ones weaker potency.

(Values after patent US8933070B2, “Methods of targeting PTEN mutant diseases and compositions therefor” (University Health Network, priority 2010, dated 2015).)
